Test results: patent US4868321A, “Isothiocyanate intermediates” (FMC Corporation, priority 1988, dated 1989)

Legend:
Format in all cases: in vivo
Cotton [1] = assay: Preemergence Herbicidal Activity, Cotton; settings: Gossypium hirsutum, pre-emergence
Source text: (§1) The herbicidal data in the following Tables 3 and 4 was obtained in the manner described in PCT published application no. WO 85/01939, previously mentioned, usually employing solutions of the herbicidal compound in 50/50 acetone/water mixtures. In those tables, the test compounds are identified by numbers which correspond to those in Table 1, "kg/ha" is kilograms per hectare, and "% C" is percent control.

Soybean [2] = assay: Preemergence Herbicidal Activity, Soybean; settings: Glycine max, pre-emergence
Source text: (§2) The herbicidal data in the following Tables 3 and 4 was obtained in the manner described in PCT published application no. […] In those tables, the test compounds are identified by numbers which correspond to those in Table 1, "kg/ha" is kilograms per hectare, and "% C" is percent control.

Field Corn [3] = assay: Preemergence Herbicidal Activity, Field Corn; settings: Zea mays, pre-emergence
Source text: as §2

Rice [4] = assay: Preemergence Herbicidal Activity, Rice; settings: Oryza sativa, pre-emergence
Source text: as §2

Wheat [5] = assay: Preemergence Herbicidal Activity, Wheat; settings: Triticum aestivum, pre-emergence
Source text: as §2

Field Bindweed [6] = assay: Preemergence Herbicidal Activity, Field Bindweed; settings: pre-emergence
Source text: as §1

Morningglory [7] = assay: Preemergence Herbicidal Activity, Morningglory; settings: Ipomoea, pre-emergence
Source text: as §1

Velvetleaf [8] = assay: Preemergence Herbicidal Activity, Velvetleaf; settings: Abutilon theophrasti, pre-emergence
Source text: as §1

Barnyardgrass [9] = assay: Preemergence Herbicidal Activity, Barnyardgrass; settings: Echinochloa crus-galli, pre-emergence
Source text: as §2

Green Foxtail [10] = assay: Preemergence Herbicidal Activity, Green Foxtail; settings: Setaria viridis, pre-emergence
Source text: as §2

Johnsongrass [11] = assay: Preemergence Herbicidal Activity, Johnsongrass; settings: Sorghum halepense, pre-emergence
Source text: as §2

Cotton [12] = assay: Postemergence Herbicidal Activity, Cotton; settings: Gossypium hirsutum, post-emergence
Source text: as §1

Soybean [13] = assay: Postemergence Herbicidal Activity, Soybean; settings: Glycine max, post-emergence
Source text: as §2

Field Corn [14] = assay: Postemergence Herbicidal Activity, Field Corn; settings: Zea mays, post-emergence
Source text: as §2

Rice [15] = assay: Postemergence Herbicidal Activity, Rice; settings: Oryza sativa, post-emergence
Source text: as §2

Wheat [16] = assay: Postemergence Herbicidal Activity, Wheat; settings: Triticum aestivum, post-emergence
Source text: as §2

Field Bindweed [17] = assay: Postemergence Herbicidal Activity, Field Bindweed; settings: post-emergence
Source text: as §1

Morningglory [18] = assay: Postemergence Herbicidal Activity, Morningglory; settings: Ipomoea, post-emergence
Source text: as §1

Velvetleaf [19] = assay: Postemergence Herbicidal Activity, Velvetleaf; settings: Abutilon theophrasti, post-emergence
Source text: as §1

Barnyardgrass [20] = assay: Postemergence Herbicidal Activity, Barnyardgrass; settings: Echinochloa crus-galli, post-emergence
Source text: as §2

Green Foxtail [21] = assay: Postemergence Herbicidal Activity, Green Foxtail; settings: Setaria viridis, post-emergence
Source text: as §2

Johnsongrass [22] = assay: Postemergence Herbicidal Activity, Johnsongrass; settings: Sorghum halepense, post-emergence
Source text: as §2

Cn1nnn(-c2cc(N(S(C)(=O)=O)S(C)(=O)=O)c(Cl)cc2F)c1=O [Compound 40]
30%: plant injury at 4000 g/ha (Field Corn [3]; 4.0 kg/ha) | plant injury at 4000 g/ha (Wheat [5]; 4.0 kg/ha) | pest or weed control at 4000 g/ha (Green Foxtail [21]; 4.0 kg/ha) | pest or weed control at 4000 g/ha (Johnsongrass [22]; 4.0 kg/ha)
10%: plant injury at 4000 g/ha (Rice [15]; 4.0 kg/ha)
100%: pest or weed control at 4000 g/ha (Velvetleaf [8]; 4.0 kg/ha)
60%: pest or weed control at 4000 g/ha (Morningglory [18]; 4.0 kg/ha) | pest or weed control at 4000 g/ha (Barnyardgrass [20]; 4.0 kg/ha)
70%: pest or weed control at 4000 g/ha (Morningglory [7]; 4.0 kg/ha) | pest or weed control at 4000 g/ha (Barnyardgrass [9]; 4.0 kg/ha) | pest or weed control at 4000 g/ha (Velvetleaf [19]; 4.0 kg/ha)
50%: plant injury at 4000 g/ha (Cotton [1]; 4.0 kg/ha)
20%: plant injury at 4000 g/ha (Soybean [2]; 4.0 kg/ha) | plant injury at 4000 g/ha (Rice [4]; 4.0 kg/ha) | plant injury at 4000 g/ha (Soybean [13]; 4.0 kg/ha) | plant injury at 4000 g/ha (Field Corn [14]; 4.0 kg/ha) | plant injury at 4000 g/ha (Wheat [16]; 4.0 kg/ha)
40%: pest or weed control at 4000 g/ha (Field Bindweed [6]; 4.0 kg/ha) | pest or weed control at 4000 g/ha (Green Foxtail [10]; 4.0 kg/ha) | pest or weed control at 4000 g/ha (Johnsongrass [11]; 4.0 kg/ha) | plant injury at 4000 g/ha (Cotton [12]; 4.0 kg/ha) | pest or weed control at 4000 g/ha (Field Bindweed [17]; 4.0 kg/ha)

CCCn1nnn(-c2cc(N(S(=O)(=O)CC)S(=O)(=O)CC)c(Cl)cc2F)c1=O [Compound 49, 1-[4-Chloro-2-fluoro-5-[bis-(N--ethylsulfonyl)amino]phenyl]-4,5-dihydro-4-propyl-5H--tetrazol-5-one]
95%: plant injury at 2000 g/ha (Wheat [5]; 2.0 kg/ha) | pest or weed control at 2000 g/ha (Barnyardgrass [20]; 2.0 kg/ha) | pest or weed control at 2000 g/ha (Green Foxtail [21]; 2.0 kg/ha)
90%: plant injury at 2000 g/ha (Cotton [1]; 2.0 kg/ha) | plant injury at 2000 g/ha (Field Corn [3]; 2.0 kg/ha) | pest or weed control at 2000 g/ha (Morningglory [18]; 2.0 kg/ha) | pest or weed control at 2000 g/ha (Johnsongrass [22]; 2.0 kg/ha)
100%: pest or weed control at 2000 g/ha (Velvetleaf [8]; 2.0 kg/ha) | pest or weed control at 2000 g/ha (Barnyardgrass [9]; 2.0 kg/ha) | pest or weed control at 2000 g/ha (Green Foxtail [10]; 2.0 kg/ha) | plant injury at 2000 g/ha (Cotton [12]; 2.0 kg/ha) | pest or weed control at 2000 g/ha (Velvetleaf [19]; 2.0 kg/ha)
50%: plant injury at 2000 g/ha (Soybean [13]; 2.0 kg/ha) | plant injury at 2000 g/ha (Rice [15]; 2.0 kg/ha)
80%: pest or weed control at 2000 g/ha (Field Bindweed [6]; 2.0 kg/ha) | pest or weed control at 2000 g/ha (Johnsongrass [11]; 2.0 kg/ha) | plant injury at 2000 g/ha (Field Corn [14]; 2.0 kg/ha) | plant injury at 2000 g/ha (Wheat [16]; 2.0 kg/ha) | pest or weed control at 2000 g/ha (Field Bindweed [17]; 2.0 kg/ha)
70%: plant injury at 2000 g/ha (Rice [4]; 2.0 kg/ha) | pest or weed control at 2000 g/ha (Morningglory [7]; 2.0 kg/ha)
20%: plant injury at 2000 g/ha (Soybean [2]; 2.0 kg/ha)

CCN(c1cc(-n2nnn(CCCF)c2=O)c(F)cc1Cl)S(=O)(=O)CC [Compound 13, 1-[4-chloro-2-fluoro-5-[(N--ethyl-N--ehtylsulfonyl)amino]phenyl]-1,4-dihydro-4-(3-fluoropropyl)-5H--tetrazol-5-one]
100%: plant injury at 1000 g/ha (Field Corn [3]; 1.0 kg/ha) | plant injury at 1000 g/ha (Rice [4]; 1.0 kg/ha) | plant injury at 1000 g/ha (Wheat [5]; 1.0 kg/ha) | pest or weed control at 1000 g/ha (Field Bindweed [6]; 1.0 kg/ha) | pest or weed control at 1000 g/ha (Velvetleaf [8]; 1.0 kg/ha) | pest or weed control at 1000 g/ha (Barnyardgrass [9]; 1.0 kg/ha) | pest or weed control at 1000 g/ha (Green Foxtail [10]; 1.0 kg/ha) | pest or weed control at 1000 g/ha (Johnsongrass [11]; 1.0 kg/ha) | plant injury at 1000 g/ha (Cotton [12]; 1.0 kg/ha) | plant injury at 1000 g/ha (Field Corn [14]; 1.0 kg/ha) | plant injury at 1000 g/ha (Rice [15]; 1.0 kg/ha) | plant injury at 1000 g/ha (Wheat [16]; 1.0 kg/ha) | pest or weed control at 1000 g/ha (Field Bindweed [17]; 1.0 kg/ha) | pest or weed control at 1000 g/ha (Morningglory [18]; 1.0 kg/ha) | pest or weed control at 1000 g/ha (Velvetleaf [19]; 1.0 kg/ha) | pest or weed control at 1000 g/ha (Barnyardgrass [20]; 1.0 kg/ha) | pest or weed control at 1000 g/ha (Green Foxtail [21]; 1.0 kg/ha) | pest or weed control at 1000 g/ha (Johnsongrass [22]; 1.0 kg/ha)
95%: plant injury at 1000 g/ha (Cotton [1]; 1.0 kg/ha) | plant injury at 1000 g/ha (Soybean [2]; 1.0 kg/ha) | pest or weed control at 1000 g/ha (Morningglory [7]; 1.0 kg/ha) | plant injury at 1000 g/ha (Soybean [13]; 1.0 kg/ha)
